Consider four molecules from ChEMBL document CHEMBL4739712, “Inhibitors of cyclin-dependent kinases” (2020).

Activity calls are given as the source filed them. The calls are words filed in the database; no cut-off is given here.

Assay [1] concerns the target T1, Cyclin-dependent kinase 12/13 (Homo sapiens) (UniProt Q14004+Q9NYV4). As to conditions: Jurkat, dose 500.0 nM, time 6.0 hrs.
Assay [2] concerns the target T1, Cyclin-dependent kinase 12/13 (Homo sapiens). As to conditions: Jurkat, dose 500.0 nM, time 4.0 hrs.
For assay [3] the target is unchanged. Particulars: Jurkat, dose 25.0 nM, time 6.0 hrs.

On to `CN(C)C/C=C/C(=O)NC1CCCC(C(=O)Nc2ncc(SCc3ncc(C(C)(C)C)o3)s2)C1` (stereo not given), for which the inhibition entry in assay [1] is “Active”.

As to `C=CC(=O)Nc1ccc(C(=O)N2CCC[C@@H](Nc3ncc(SCc4ncc(C(C)(C)C)o4)s3)C2)c(C)c1`, the inhibition entry in assay [2] is “Active”.

`C=CC(=O)Nc1ccc(OC(=O)N2CCC[C@@H](Nc3ncc(SCc4ncc(C(C)(C)C)o4)s3)C2)cc1`: in assay [1], the inhibition entry was “Active”.

Consider `C=CC(=O)Nc1cccc(C(=O)N2CCCC(Nc3ncc(SCc4ncc(C(C)(C)C)o4)s3)C2)c1` (stereo not given), for which the inhibition result in assay [1] is “Active”. Besides, the inhibition entry in assay [3] was “inactive”.
